Values of other authors as cited in patent publication US12350279B2, “Nasal rinse compositions and methods” (Campbell Holding Company LLC, priority 2022, dated 2025).

Assays:
[1] = animal models
[2] = tested on: animal models of chronic asthma
[3] = tested on: allergic asthma animal model

C=C(C)[C@@H]1CCC(C)=C[C@H]1c1c(O)cc(CCCCC)cc1O [CBD, Cannabidiol]
time to absorption after intranasal application [1]: ≤ 10 min
effect on cytokines [2]: reduce relevant cytokines
effect on inflammatory and remodeling process, airway hyperreactivity [3]: reduced the inflammatory and remodeling process with decreased airway hyperreactivity
